For data set [1] the following is noted: cited from earlier work.
The test system of data set [2] is MeCP2-repressed (MR) long genes in MeCP2 knockdown primary cortical neurons. Description: Nanostring nCounter expression of MeCP2-repressed long genes in MeCP2 shRNA knockdown primary cortical neurons treated with topotecan. The format is cell-based, mouse. On the procedure:
Primary cortical neurons were prepared from E16.5 mouse embryos and cultured as described by Kim et al. For lentiviral-mediated shRNA knockdown, virus was prepared as described in Tiscornia et al.^48 using the MeCP2 shRNA and control shRNA plasmids previously validated in Zhou et al.^49. Virus was concentrated and titrated using the GFP signal expressed from IRES GFP in the virus. After one day in vitro (DIV), cells were infected with lentivirus (knockdown or control) at an MOI of ˜5, such that >90% of cells were infected. […] RNA samples were processed and analyzed using the Nanostring nCounter assay as described above, with the exception that 6 control genes were used for normalization. […]
For non-amplification-based gene expression analysis, Nanostring nCounter reporter CodeSets were designed to detect candidate MeCP2-repressed genes in 250 ng of total RNA extracted from MeCP2 KO and R306C mice. […] Briefly, total RNA was incubated at 65° C. with reporter and capture probes in hybridization buffer overnight, and captured probes were purified and analyzed on the nCounter Digital Analyzer. […] Significant differences between wild-type and MeCP2 KO or MeCP2 R306C samples (p<0.01) were also detected by paired two-tailed t-test comparing the paired mean values for each gene (averaged across samples within each genotype) between genotypes

In data set [3] the test system is MeCP2 knockdown primary cortical neurons. Put plainly: Ribosomal RNA (Bioanalyzer 18S/28S) and total RNA content of MeCP2 knockdown neurons treated with topotecan. Type of data set: cell-based, mouse. The note with it: 50 nM topotecan.
For data set [4], the system named is MeCP2 hemizygous male mice. Description: In vivo topotecan treatment by intracerebroventricular osmotic pump: survival and behavior score. More on the design: species or system mouse. The settings on record: 25 μM topotecan in 28-day osmotic pump to right lateral ventricle, 8 week old mice, N=7-8. As for the experimental part: MeCP2 hemizygous male mice at 8 weeks of age (Jackson Labs) were separated into two equal groups based weight. Using standard stereotaxic techniques, cannula (Alzet, Brain Infusion Kit 3) were guided to the right lateral ventricle (from bregma; A/P 1 mm, LV 1 mm) and connected to an osmotic pump (Alzet, 1004, 28-day release) that was implanted subcutaneously. The osmotic pumps had been previously loaded with either vehicle (50 mM tartaric acid) or 25 μM topotecan and primed at 37° C. for approximately 2 days prior to implantation. All mice survived surgery and the following postoperative day. Survival monitoring began on postoperative day 2 and behavioral scoring began on postoperative day 4. MeCP2 behavior was scored as previously reported by Guy et al. Science 2005. Briefly, 6 behavioral domains are monitored to capture the progression of the MeCP2 phenotype: locomotor activity, gait, hindlimb clasp, tremor, breathing, and overall condition. Each behavioral domain is scored as 0 (absence), 1 (mild to moderate), or 2 (severe), and summed to give the total behavioral score. Survival statistics: p=0.09; Mantel-Cox. Behavioral statistics: * p<0.05; 2-way ANOVA, Fisher's LSD. N=7-8.

Molecules are shown by their SMILES. Like-named read-outs stand apart in the source and are kept apart here.

`COc1cccc2c1C(=O)c1c(O)c3c(c(O)c1C2=O)C[C@@](O)(C(=O)CO)C[C@@H]3O[C@H]1C[C@H](N)[C@H](O)[C@H](C)O1` [doxorubicin]: the “doxorubicin concentrations in the brain” value in data set [1] (injection of the drug alone or the uncoated nanoparticle) is “no detectable increase”; in data set [1] (nanoparticles overcoated with polysorbate 80, intravenous injection of 5 mg/kg), “up to 6 μg/g”.

On to `CC[C@@]1(O)C(=O)OCc2c1cc1n(c2=O)Cc2cc3c(CN(C)C)c(O)ccc3nc2-1` [topotecan, Topotecan], for which the “concentration of topotecan that most effectively reverses overexpression of long genes” value in data set [2] (MeCP2 knockdown cortical neurons) is on record as 50 nM. In addition, the “reversal of long gene misregulation (up-regulation of long genes after MeCP2 knockdown)” value in data set [2] (cultured cortical neurons, MeCP2 RNAi knockdown, topotecan from DIV 4 to DIV 10) was “dose-dependent reversal of long gene misregulation”. The “effect on decreased ribosomal RNA content of neurons lacking MeCP2” value in data set [3] was “partially reverses the decreased ribosomal RNA content”. Further, in data set [4], the “Behavioral statistics, p (2-way ANOVA, Fisher's LSD), total behavioral score, topotecan versus vehicle” value is given as under 0.05 and the “Survival statistics, p (Mantel-Cox), topotecan versus vehicle” value is recorded as 0.09.
